We go through 15 molecules from PubChem BioAssay (NCI).

Values joined by “and” are separate entries in the source; they are usually repeats but may differ in a detail not shown here. Equal values may be shown once.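 Five concentrations, 48 hours, 96-well plates. GI50 = concentration required for 50% inhibition of growth. The concentration for full growth arrest is given as TGI.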 Where only a bound is given, the exact number is not on record here.

Holding throughout (experiment): NCI anticancer screen, dose series, 48 h
In assay [1] the test system is 786-0 renal.
The subject of assay [2] is SN12C renal.
The test system of assay [3] is SK-MEL-2 melanoma.
Assay [4] concerns SK-OV-3 ovarian.
Assay [5] has as its system MDA-MB-231 breast.
For assay [6], the system named is ACHN renal.
Assay [7] deals with UACC-62 melanoma.
Assay [8] deals with K-562 leukemia.
For assay [9], the system named is UO-31 renal.
Assay [10] concerns NCI-H23 lung.

In the case of `CNC(=O)c1cc(Oc2ccc3nc(NC(=O)Nc4ccc(CN5CCOCC5)c(C(F)(F)F)c4)sc3c2)ccn1`, the GI50 was 2.22 µM in assay [1]; 2.58 µM in assay [2]; 2.74 µM in assay [3]; 2.18 µM in assay [4]; 2.14 µM in [5]; 1.68 µM in assay [6]. In addition, the GI50 was 1.44 µM in [7], 1.53 µM in assay [8], 1.65 µM in [9] and 1.7 µM in assay [10]. Besides, the TGI in assay [1] turned out to be 4.32 µM; in [2], 9.36 µM; in assay [3] it was 7.81 µM; in assay [4], 4.81 µM; in [5], 5.8 µM; in assay [6] it was 4.21 µM. Also, the TGI in assay [7] is 4.58 µM; in [8], > 100 µM; in assay [9], 3.94 µM; in assay [10] it was 4.22 µM.
As for `CC(=O)N[C@H](C)[C@@H](O)[C@@H](C)[C@@H]1OC(=O)/C=C/C=C(C)\C=C\[C@]2(C)C[C@@H](NS(C)(=O)=O)C=C[C@@H]2/C=C(C)/C=C/[C@H]1C`, the GI50 is 0.0469 µM and 0.0185 µM in assay [1]; 0.00723 µM and 0.0129 µM in [2]; 3.88 µM and 24.1 µM in assay [3]; 0.00446 µM and 0.00599 µM in assay [4]; 0.00125 µM and 0.0046 µM in assay [5]; 0.0125 µM in assay [6]. The GI50 was 0.00725 µM and 0.0278 µM in [7]; 0.00684 µM and 0.0218 µM in [8]; 0.00495 µM and 0.00725 µM in [9]; 0.0493 µM in [10]. Further, the TGI was > 43.5 µM in assay [1]; > 43.5 µM in assay [2]; > 43.5 µM in assay [3]; 0.0397 µM in assay [4]; > 43.5 µM in assay [6]; > 43.5 µM in [7]. In addition, the TGI in assay [8], in [9] and in assay [10] was > 43.5 µM in each case.
For `O=C1Cc2c(-c3ccccc3)cc(-c3ccccc3)nc2-c2ccccc2N1`, the results for the GI50 in assay [1] and in [6] were 4.14 µM and 4.04 µM, respectively. Also, the TGI in assay [1] stood at 72.5 µM; in [2], 30.8 µM; in [3], 7.27 µM; in assay [4], 18.9 µM; in assay [5] it was 17.2 µM; in [6] it was 19 µM. Besides, the TGI is 25.7 µM in assay [7], > 100 µM in [8], 11.4 µM in assay [9] and 36.6 µM in assay [10].
`C[C@H]1CCC/C=C/C2CC(OC(=O)CN(C)C)CC2C(OC(=O)CN(C)C)/C=C/C(=O)O1` (some centres not stated): the GI50 is 0.107 µM in assay [1]; 0.391 µM in assay [2]; 0.224 µM in assay [3]; 0.237 µM in [4]; 0.148 µM in assay [5]; 0.398 µM in assay [6]. For the same molecule, the GI50 in assay [7] was 0.443 µM; in assay [8], 3.29 µM; in assay [9] it was 0.142 µM; in [10], 0.359 µM. The TGI in assay [2] is 8.33 µM; in assay [3] it was 3.79 µM; in assay [5], 0.806 µM; in [6], 11.9 µM; in assay [7], > 65.4 µM; in [8], > 100 µM. Further, the TGI in assay [9] worked out at 0.765 µM; in assay [10], 1.92 µM.
Turning to `CC1(C)OB(c2ccc(N(CCOS(C)(=O)=O)CCOS(C)(=O)=O)cc2)OC1(C)C`, the GI50 in assay [1] is 3.41 µM; in assay [2] it was 9.38 µM; in assay [3], 28.6 µM; in assay [4], 34.3 µM; in [5], > 43.5 µM; in assay [6] it was 3 µM. In addition, the GI50 was 13 µM in assay [7], 16.3 µM in [8], 16.5 µM in [9] and 6.88 µM in assay [10]. Also, the TGI is 21.6 µM in [1]; > 54.6 µM in assay [2]; > 79.1 µM in [3]; > 100 µM in assay [4]; > 65.2 µM in [5]; 14.2 µM in [6]. The TGI in assay [7] is 33 µM; in assay [8], > 86.2 µM; in assay [9], > 64.6 µM; in assay [10] it was 30.4 µM.
With `Cc1cccc2c(C3=C(c4cn(C)c5ccccc45)C(=O)NC3=O)cn(C)c12`, the GI50 in assay [1] was > 22.1 µM; in [2] it was > 25 µM; in assay [3] it was 24.3 µM; in assay [4], > 22.5 µM; in assay [5], > 19.6 µM; in assay [6] it was 13.1 µM. Moreover, the GI50 in assay [7] is > 25 µM; in [8] it was > 19.7 µM; in [9] it was > 21.5 µM; in assay [10] it was > 25 µM. Besides, the TGI in [1], in assay [2], in [3], in [4], in assay [5] and in assay [6] was > 25 µM in each case. In addition, the TGI in assay [7], in [8], in assay [9] and in assay [10] was > 25 µM throughout.
Consider `CCN(CC)CCNc1c2ccccc2nc2cccc([N+](=O)[O-])c12`, for which the TGI in assay [1] was 0.0266 µM and 0.0489 µM; in assay [2], 0.0413 µM and 0.207 µM; in assay [3], 0.0185 µM and 0.023 µM; in [4] it was 0.0637 µM; in [5], 0.00487 µM; in [6], 0.0184 µM and 0.0468 µM. Also, the TGI in assay [7] was 0.0208 µM; in assay [8] it was 0.121 µM; in assay [9], 0.0412 µM and 0.252 µM; in assay [10], 0.0188 µM. Besides, the values for the GI50 in assay [2], in assay [3] and in assay [9] were 0.0221 µM, 0.0102 µM and 0.0712 µM, respectively.
As for `CN(C)c1ccc(C(=S)c2ccc(N(C)C)cc2)cc1`, the GI50 in [1] was 10.3 µM; in assay [2], 5.91 µM; in assay [3], 3.53 µM; in [4] it was 10.9 µM; in [5] it was 8 µM; in assay [6] it was 13.4 µM. In addition, the GI50 in assay [7] is 4.47 µM; in assay [8] it was 3.61 µM; in assay [9], 8.92 µM; in assay [10], 7.28 µM. Moreover, the TGI in assay [1] is > 100 µM; in assay [2] it was > 100 µM; in [3], 15.2 µM; in [4] it was > 100 µM; in assay [5] it was > 100 µM; in assay [6] it was > 100 µM. The TGI in [7], in [8], in assay [9] and in [10] was > 100 µM each time.
`C[C@@H]1CC[C@H]2[C@@H](C)C(O)O[C@@H]3O[C@]4(C)CC[C@@H]1[C@]32OO4` (some centres not stated): the GI50 in assay [1] was 1.59 µM; in assay [2], 1.37 µM; in assay [3] it was 2 µM; in assay [4], 11.8 µM; in assay [5] it was 6.16 µM; in assay [6], 1.26 µM. In addition, the GI50 in assay [7] was 0.56 µM; in assay [8] it was 0.337 µM; in assay [9], 0.375 µM; in assay [10] it was 0.442 µM. Besides, the TGI in assay [1] was > 48.8 µM; in [2], > 72.3 µM; in [3] it was 15.2 µM; in assay [4] it was > 60.3 µM; in assay [5], > 56.8 µM; in assay [6], 13 µM. Besides, the TGI was > 76.9 µM in assay [7], 4.57 µM in [8], 2.31 µM in assay [9] and 10.7 µM in assay [10].
Consider `COc1ccc(-c2nn(-c3cccc(Cl)c3)cc2/C=C2\NC(=S)N(c3ccc(Cl)cc3)C2=O)cc1`, for which the GI50 in assay [1] was 5.57 µM; in [2], 5.48 µM; in assay [3] it was 4.15 µM; in [4] it was 3.77 µM; in assay [5] it was 3.33 µM; in [6] it was 3.72 µM. Further, the GI50 was 3.29 µM in assay [7], 3.12 µM in [8], 8.53 µM in assay [9] and 3.78 µM in [10]. The TGI in assay [1] is > 25 µM; in assay [2] it was > 25 µM; in assay [3] it was 9.61 µM; in assay [4], 8.22 µM; in assay [5] it was 11.5 µM; in [6], > 25 µM. Besides, the TGI was 7.64 µM in [7], 7.92 µM in [8], > 25 µM in [9] and 9.23 µM in assay [10].
Take `CCOC(=O)C1(CC(=O)O)CCCC1=O` (configuration not stated): the TGI in [1], in assay [2], in [3], in assay [4], in [5] and in [6] was > 100 µM in each case. Besides, the TGI in assay [7], in assay [8], in assay [9] and in [10] was > 100 µM in each case.
On to `Oc1ccc(NC(=S)Nc2ccccc2)cc1`, for which the GI50 in assay [1], in assay [2], in [3], in assay [4], in assay [5] and in [6] was > 100 µM in each case. The GI50 in [7], in [8], in assay [9] and in [10] was > 100 µM throughout. Also, the TGI in [1], in assay [2], in assay [3], in [4], in [5] and in assay [6] was > 100 µM each time. Besides, the TGI in assay [7], in assay [8], in assay [9] and in assay [10] was > 100 µM throughout.
On to `C=CC(=O)N[C@@H]1CN(c2nc(Nc3cn(C)nc3OC)c3ncn(C)c3n2)C[C@H]1F`, for which the GI50 in assay [1] was 28.1 µM; in assay [2], 45.9 µM; in assay [3], 26.1 µM; in [4], 0.0881 µM; in assay [5], 23.8 µM; in [6] it was 0.506 µM. For the same molecule, the GI50 in assay [7] was 23.1 µM; in assay [8], 42.9 µM; in assay [9], 10.9 µM; in [10], 27.5 µM. Also, the TGI in assay [1] was > 100 µM; in assay [2] it was > 100 µM; in [3] it was 78.3 µM; in assay [4], > 47.2 µM; in assay [5] it was > 88.2 µM; in [6] it was > 100 µM. Further, the TGI in assay [7] was > 90.6 µM; in assay [8], > 100 µM; in assay [9], > 100 µM; in assay [10], > 100 µM.
Consider `O=c1cc(-c2ccc(Cl)cc2)[nH]c2ccccc12`, for which the GI50 in [1] is 64.8 µM; in [2], > 100 µM; in assay [3], > 100 µM; in [4], 44.8 µM; in assay [5], 57 µM; in assay [6], 57.8 µM. Besides, the GI50 in assay [7] was 37.4 µM; in assay [8], 7.03 µM; in [9], > 100 µM; in assay [10], 63 µM. The TGI in [1], in assay [2], in assay [3], in assay [4], in assay [5] and in assay [6] was > 100 µM throughout. Further, the TGI in assay [7], in [8], in [9] and in assay [10] was > 100 µM throughout.
Consider `CCN(C(=O)N1CCN(c2cc3c(cc2F)c(=O)c(C(=O)O)cn3C2CC2)CC1)c1nc(-c2ccccc2)cs1`, for which the GI50 in [1] is 2.47 µM; in assay [2] it was 3.44 µM; in assay [3], 2.02 µM; in [4], 2.1 µM; in assay [5] it was 2.11 µM; in assay [6], 1.69 µM. The GI50 in [7] was 2.05 µM; in assay [8], 3.2 µM; in [9], 2.31 µM; in assay [10] it was 2.79 µM. The TGI in assay [1] was 15.5 µM; in [2] it was > 100 µM; in assay [3], 4.64 µM; in assay [4], 6.86 µM; in assay [5] it was 5.92 µM; in [6], 9.47 µM. Moreover, the TGI in assay [7] was 5.62 µM; in [8] it was > 100 µM; in assay [9], > 100 µM; in assay [10], 29.5 µM.
